Results: patent publication US20190053492A1, “SUBSTITUTED PYRIDINE COMPOUNDS AS PESTICIDES” (Bayer CropScience Aktiengesellschaft, priority 2016, published 2019)
Like-named read-outs stand apart in the source and are kept apart here.

Experiments:
[1] = log P by HPLC on reversed-phase column (C 18), EEC Directive 79/831 Annex V.A8; assay type: physicochemical; conditions: 55° C.; for LOGP_HCOOH: log P (HCOOH); for LOGP_NEUTRAL: log P, neutral range; for chromatographic logP: reversed-phase HPLC column (C 18)
Description: Temperature: 55° C. […] Called log P (HCOOH) in the table. […] Called log P (neutral) in the table.

Spodoptera frugiperda = Spodoptera frugiperda spray test; assay type: in vivo; conditions: after 7 days, maize leaf discs
How it was run: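 Maize leaf discs were sprayed with compound formulated in acetone/DMF and emulsifier-containing water, dried, then infested with Spodoptera frugiperda caterpillars. Percent kill was scored after 7 days, from 100% (all dead) to 0% (none dead).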

Ctenocephalides felis = Ctenocephalides felis oral test; assay type: in vivo; conditions: application rate 100 ppm in citrated cattle blood, after 2 days, adult cat fleas
How it was run: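 About 20 unfed adult cat fleas fed through a parafilm membrane on citrated cattle blood dosed with compound from a DMSO formulation. Percent kill was scored after 2 days.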

Myzus persicae = Myzus persicae spray test; assay type: in vivo; conditions: application rate 500 g/ha, after 6 days, Chinese cabbage leaf discs
Description: Myzus persicae—Spray Test
Solvent: 78 parts by weight of acetone • • 1.5 parts by weight of dimethylformamide
(§1) Emulsifier: alkylaryl polyglycol ether
(§2) To produce a suitable active ingredient formulation, 1 part by weight of active ingredient is dissolved with the specified parts by weight of solvent and made up with water containing an emulsifier concentration of 1000 ppm until the desired concentration is attained. To produce further test concentrations, the formulation is diluted with emulsifier-containing water.
Discs of Chinese cabbage leaves (Brassica pekinensis) infested by all stages of the green peach aphid (Myzus persicae) are sprayed with an active ingredient formulation of the desired concentration.
After 6 days, the efficacy in % is determined. 100% means that all the aphids have been killed; 0% means that no aphids have been killed.

Meloidogyne incognita = Meloidogyne incognita test; assay type: in vivo; conditions: application rate 20 ppm, after 14 days, lettuce
Description: Meloidogyne incognita Test Solvent: 125.0 parts by weight of acetone To produce a suitable active ingredient formulation, 1 part by weight of active ingredient is mixed with the stated amount of solvent and the concentrate is diluted with water to the desired concentration. Vessels are filled with sand, active ingredient solution, an egg/larvae suspension of the southern root-knot nematode (Meloidogyne incognita) and lettuce seeds. The lettuce seeds germinate and the plants develop. The galls develop on the roots. After 14 days, the nematicidal efficacy in % is determined by the formation of galls. 100% means that no galls were found; 0% means that the number of galls on the treated plants corresponds to the untreated control.

Phaedon cochleariae = Phaedon cochleariae spray test; assay type: in vivo; conditions: after 7 days, Chinese cabbage leaf discs
How it was run: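 Chinese cabbage leaf discs sprayed with compound in acetone/DMF and emulsifier-containing water, then infested with mustard beetle larvae once dry. Efficacy in % scored after 7 days (100% = all larvae killed, 0% = none).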

Tetranychus urticae = Tetranychus urticae spray test, OP-resistant; assay type: in vivo; conditions: application rate 500 g/ha, after 6 days, bean leaf discs
Description: Tetranychus urticae—Spray Test, OP-Resistant
Solvent: 78.0 parts by weight of acetone • • 1.5 parts by weight of dimethylformamide
as §1, §2
Discs of bean leaves (Phaseolus vulgaris) infested with all stages of the greenhouse red spider mite (Tetranychus urticae) are sprayed with an active ingredient formulation of the desired concentration.
After 6 days, the efficacy in % is determined. 100% means that all the spider mites have been killed; 0% means that no spider mites have been killed.

Boophilus microplus = Boophilus microplus injection test; assay type: in vivo; conditions: application rate 20 μg/animal, assessed after 7 days, engorged adult female cattle ticks
Description: Boophilus microplus—Injection Test
Solvent: dimethyl sulphoxide
To produce a suitable active ingredient formulation, 10 mg of active ingredient are mixed with 0.5 ml of solvent and the concentrate is diluted to the desired concentration with solvent.
1 μl of the active ingredient solution is injected into the abdomen of 5 engorged adult female cattle ticks (Boophilus microplus). The animals are transferred into dishes and kept in a climate-controlled room.
Efficacy is assessed after 7 days by laying of fertile eggs. Eggs which are not visibly fertile are stored in a climate-controlled cabinet until the larvae hatch after about 42 days. An efficacy of 100% means that none of the ticks has laid any fertile eggs; 0% means that all the eggs are fertile.

Lucilia cuprina = Lucilia cuprina test; assay type: in vivo; conditions: application rate 100 ppm, after 2 days, L1 larvae
How it was run: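 Active ingredient dissolved in DMSO and diluted with water to the test concentration. About 20 first-instar sheep blowfly larvae placed on minced horsemeat containing the formulation; percentage of larvae killed scored after 2 days.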

Musca domestica = Musca domestica test; assay type: in vivo; conditions: application rate 100 ppm, after 2 days, adult houseflies
How it was run: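 Active ingredient was dissolved in DMSO and diluted with water to the desired concentration, then applied to a sponge with sugar solution. Ten adult houseflies were exposed per vessel. Percent kill was scored after 2 days.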

[2] = acidic range pH 2.7, 0.1% aqueous formic acid and acetonitrile, reversed-phase column (C 18)
[3] = HPLC on reversed-phase column (C 18)
[4] = acidic range at pH 2.7, 0.1% aqueous formic acid and acetonitrile, HPLC on reversed-phase column (C 18)

Row | Structure (SMILES) | LOGP_HCOOH [1, 2] | LOGP_NEUTRAL [1, 3] | chromatographic logP ([1]; pH 2.7, LC-MS acidic range, pH 2.7, 0.1% formic acid/acetonitrile, read-out: log P (acidic) / log P (HCOOH)) | chromatographic logP ([1]; pH 7.8, LC-MS neutral range, pH 7.8, ammonium hydrogencarbonate/acetonitrile, read-out: log P (neutral)) | pest or weed control at 100 g/ha (Spodoptera frugiperda; Spodoptera frugiperda, foliar, 168 h, application rate 100 g/ha, read-out: efficacy (caterpillars killed)) [%] | pest or weed control at 500 g/ha (Spodoptera frugiperda; Spodoptera frugiperda, foliar, 168 h, application rate 500 g/ha, read-out: efficacy (caterpillars killed)) [%] | pest or weed control at 100 ppm (Ctenocephalides felis; Ctenocephalides felis, po, 48 h, read-out: efficacy (kill in %)) [%] | efficacy (aphids killed) (Myzus persicae) [%] | nematicidal efficacy (formation of galls) (Meloidogyne incognita) [%] | pest or weed control at 500 g/ha (Phaedon cochleariae; Phaedon cochleariae, foliar, 168 h, application rate 500 g/ha, read-out: efficacy (beetle larvae killed)) [%] | efficacy (kill in %) (Ctenocephalides felis) [%] | efficacy (spider mites killed) (Tetranychus urticae) [%] | efficacy (no laying of fertile eggs) (Boophilus microplus) [%] | efficacy (kill in %) (Lucilia cuprina) [%] | LOGP_HCOOH [1, 4] | efficacy (caterpillars killed) (Spodoptera frugiperda; application rate 100 g/ha) [%] | efficacy (caterpillars killed) (Spodoptera frugiperda; application rate 500 g/ha) [%] | efficacy (kill in %) (Musca domestica) [%] | efficacy (beetle larvae killed) (Phaedon cochleariae; application rate 100 g/ha) [%] | efficacy (beetle larvae killed) (Phaedon cochleariae; application rate 500 g/ha) [%]
1 | N#Cc1ccc(CNC(=O)c2cc(-c3ccc(C(F)(F)F)cc3)cc(N(C(=O)C3CC3)C(=O)C3CC3)n2)cc1F [Example I-028, 6-[Bis(cyclopropylcarbonyl)amino]-N-(4-cyano-3-fluorobenzyl)-4-[4-(trifluoromethyl)phenyl]pyridine-2-carboxamide] | 4.27 | 4.18 | 4.27 | 4.18 | 83 | 100 | 100 | 90 | 90 | 100 |  |  |  |  |  |  |  |  |  | 
2 | CC(C)C(=O)Nc1cc(-c2ccc(OC(F)(F)F)cc2)cc(C(=O)NCc2ccc(-c3cnco3)cc2)n1 [Example I-104] | 3.99 | 3.87 |  |  |  |  |  |  | 90 |  | 80 | 90 | 95 | 100 |  |  |  |  |  | 
3 | N#Cc1ccc(CNC(=O)c2cc(-c3ccc([S+]([O-])C(F)(F)F)cc3)cc(NC(=O)C3CC3)n2)cc1 (stereo not drawn) [Example I-151] |  | 3.50 |  |  |  |  |  |  |  |  | 100 |  | 80 | 100 | 3.09 | 100 | 100 | 100 | 100 | 100
4 | COC(=O)C1(NC(=O)c2cc(-c3ccc(OC(F)(F)F)cc3)cc(NC(=O)C3CC3)n2)COC1 [Example I-175] |  | 3.17 |  |  |  |  |  | 90 |  |  |  |  |  |  | 3.25 |  |  |  |  | 
